# Measured values as given in patent US20090076172A1, “Prolonged Deactivation” (priority 2004, published 2009).
# Target: T1, Der p1 allergen (Dermatophagoides pteronyssinus, UniProt P08176)
# T1 construct: House dust was passed through a number of sieves and the fraction smaller than 53 μm was collected; from tissue; host or cells: house dust (sieved fraction smaller than 53 μm)
# Experiment: Der p1 allergen reduction in house dust after vapour exposure in a booth (ELISA)
# Details: 0.8 ml β-pinene on 6 ml water vaporised by oil burner, house dust on PTFE tray, vs pre-treatment control
# Description: When using house dust for allergen denaturing tests an inherent difficulty is the variability of the amount of allergen in each small sample, even when taken from the same dust reservoir. The amount of dust in the pre-treatment sample must be accurately estimated in order to determine the extent of any allergen denaturing. In these tests the dust sample was applied to the test exposure surface and then one half of this surface dust was removed to measure the control pre-treatment allergen level of that specific sample. Each control was directly relevant to each sample, which gave the best possible estimate of the level of allergen in the sample before exposure to possible denaturant. All tests employed a glass reinforced plastic booth of size 0.7 m×0.7 m×1.0 m. All tests had 5 or 6 replicates. Average values are stated.
# The following Examples all measure the reduction of the house dust mite Dermatophagoides pteronyssinus allergen—Der p1.
# House dust was passed through a number of sieves and the fraction smaller than 53 μm was collected. 0.025 g of dust was placed in a small sieve to distribute it evenly over the test surface. The test surface was a PTFE (polytetrafluoroethylene—trade mark TEFLON) coated metal tray of size 30 cm×30 cm. The dust was applied to the tray by moving the sieve continuously over the surface while tapping the sieve. One half of the dust was then removed by suction onto an in-line filter and the weight recorded, this was the pre-treatment control. The tray was then placed in the booth. An oil burner containing 0.8 ml of β-pinene floated on 6ml of distilled water was placed in the booth, and the booth was sealed. The oil burner candle was lit and allowed to burn, under the oil/water until all the liquid had been vaporised (approximately 30 minutes). The candle was then smothered. After 24 hours the tray was removed, the dust was collected from it and its weight recorded. The booth was washed with strong detergent between tests.
# The test samples were assayed for the Der p1 allergen using an ELISA (enzyme linked immunosorbent assay) to determine the allergen content. This was then related to the weight of dust that had been present in each sample. All of the samples were multiplied up to compare the amount of allergen expected to be present in a 0.1 g sample of dust. The percentage difference between the control sample and the exposed sample was then obtained. One analysis was carried out on week 0 (24 hours after the tests were completed. Another analysis was carried out after 2 weeks.
# Corresponding tests were carried out and the same ELISA analysis carried out at Week 0 and after 4 weeks.
# T1 sequence (P08176 99-320): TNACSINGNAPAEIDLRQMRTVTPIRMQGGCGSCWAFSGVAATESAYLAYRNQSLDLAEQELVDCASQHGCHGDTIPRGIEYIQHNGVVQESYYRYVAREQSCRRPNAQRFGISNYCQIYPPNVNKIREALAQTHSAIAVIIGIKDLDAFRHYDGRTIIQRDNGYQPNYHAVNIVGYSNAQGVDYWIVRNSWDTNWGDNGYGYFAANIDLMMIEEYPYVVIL
smiles,measurement,setting,value
C=C1CCC2CC1C2(C)C (stereo not drawn) [β-pinene],Der p1 allergen reduction,"corresponding (second) test series, Week 0",Week 0-77.5%
same,Der p1 allergen reduction,"corresponding (second) test series, Week 4 (analysis after 4 weeks)",Week 4-91.6%
same,Der p1 allergen reduction,"first test series, Week 0 (24 hours after the tests were completed)",Week 0-68.0%
same,Der p1 allergen reduction,"first test series, Week 2 (analysis after 2 weeks)",Week 2-66.3%
